Experimental data taken from patent EP0934940A1, “CYTOKINE PRODUCTION INHIBITORS, TRIAZEPINE COMPOUNDS, AND INTERMEDIATES THEREOF” (Japan Tobacco Inc., priority 1996, dated 1997).
Counter-ions that a name gives are not always drawn. Like-named read-outs stand apart in the source and are kept apart here.

Assays:
IL-6 [1] = assay: Inhibitory activity on in vivo IL-6 production by LPS stimulation; details: male ICR mice, LPS stimulation i.v., test compound 10 mg/kg p.o. at the same time, blood two hours later, relative to 0.5% CMC-Na group; for inhibition in vivo at 10 mg/kg: Mus musculus, po, 2 h, read-out: Inhibtion (%) of plasma IL-6 production (10 mg/kg, p.o.)
Protocol: Inhibitory activity on in vivo IL-6 production by LPS stimulation
LFS (0.3 mg/kg) was intravenously administered to male ICR mice (6-week-old) fasted for 24 hours. At the same time, the test compound suspended in 0.5% CMC-Na ( carboxymethylcellulose sodium) was orally administered at the dose of 10 mg/kg.
Two hours later, blood was taken from eyegrounds. The blood was centrifuged, and the plasma fraction was diluted and quantitatively assayed for IL-6 in blood by ELISA (Endogen EM-IL6). The inhibitory percentage of the group administered with the test compound was expressed relative to the amount of IL-6 in blood of the cup administered with 0.5% CMC-Na.

TNF-α [2] = assay: Inhibitory activity on TNF-α production from LPS-stimulated human PBMC (ELISA); format: cell-based
Protocol: (§1) Inhibitory activity on cytokine production from human PBMC (peripheral blood mononuclear cell)
(§2) PBMC fractions were isolated from human blood using a mono-poly resolving medium. The cells (PBMC) were cultured in 5% FCS (fetal calf serum)/RPMI1640 medium. Thereafter, the test compound was added to the final concentration of 0.001-10 µM, and LPS (lipopolysaccharide) was added to the final concentration of 10 µg/ml. After incubatioin for 24 hours, the supernatant was separated and freeze stocked at -80°C.
(§3) On the day of experiment, the supernatant was thawed and the production amount of cytokine was measured by ELISA. IL-6 was assayed using [(h)IL-6] human, ELISA system (Amersham); TNF-α was assayed using [(h)TNF-α] human, ELISA system (Amersham); GM-CSF was assayed using human GM-CSF immunoassay (R&D systems); and IL-8 was assayed using human IL-8 immunoassay (R&D systems). The determination method followed the method of each kit. The results are expressed in IC50.

IL-6 [3] = assay: Inhibitory activity on IL-6 production from LPS-stimulated human PBMC (ELISA); format: cell-based; details: 24 h
Protocol: as §1, §2, §3

Adjuvant arthritis (AIA) = assay: Effects on rat adjuvant arthritis (hind limb edema); format: in vivo; details: Lewis rats, 10 mg/kg p.o. once a day for 28 days from day 0, hind limb edema at day 28, mean±standard error, **p < 0.01
Protocol: Effects on rat adjuvant arthritis
Lewis rats (5-week-old, Charles River Japan, Inc.) were used for the test. Adjuvant arthritis (AIA) was induced by injection (0.5 mg) of Mycobacterium butyricum (Difco) suspended in paraffin oil, from the root of the tail at day 0. The volume of the hind limb was measured with time after the injection of adjuvant. The test compound was suspended in 0.5% HPMC (hydroxypropylmethycellulose) and orally administered at the dose of 10 mg/kg once a day for 28 days from day 0. The suppression of edema of hind limb at day 28 was calculated as follows. Suppression (%) = 100 ×((AIA treated group-AIA control group))/((normal control group-AIA control group)) [formula]
The results are shown in mean±standard error and tested by Student-test. The result was significant when p value was less than 0.05.

IL-8 = assay: Inhibitory activity on IL-8 production from LPS-stimulated human PBMC (immunoassay); format: cell-based; details: 24 h, read-out: IL-8 IC50 (µM)
Protocol: as §1, §2, §3

IL-2 = assay: Inhibitory activity on IL-2 production in concanavalin A-stimulated spleen cells; format: cell-based, Balb/c mice; details: Balb/c mouse spleen cells, 5 µg/ml concanavalin A, 24 hours, EIA
Protocol: (§4) Inhibitory activity on IL-2 and IFNγ production
(§5) The spleen cells obtained from 9-week-old Balb/c mice (Charles River Japan, Inc.) was suspended in RPMI-1640 medium supplemented with 10% FCS, at 4 × 10^6 cells/ml. The suspended cells were incubated in a 96 well plate (0.25 ml per well) in the presence of 5 µg/ml concanavalin A. The cells were cultured with or without addition of various concentrations of test compounds. After 24 hours' incubation, the culture broth was taken for assay of cytokine and preserved at -80°C. The concentrations of IL-2 and IFNγ in the culture broth were measured using an EIA kit (perSeptive Diagnostic) according to the attached protocol. The results are expressed in IC50.

TNF-α [4] = assay: Inhibitory activity on in vivo TNF-α production by LPS stimulation; details: male ICR mice, 30 mg/kg p.o. 30 minutes before LPS 0.3 mg/kg i.v., blood one hour after LPS, relative to 0.5% CMC-Na group
Protocol: Inhibitory activity on in vivo TNF-α production by LPS stimulation
The test compound suspended in 0.5% CMC-Na (carboxymethylcellulose sodium) was orally administered at the dose of 30 mg/kg to male ICR mice (6-week-old) fasted for 24 hours. At 30 minutes after oral administration, LPS was intravenously administered at the dose of 0.3 mg/kg. At one hour after LSP administration, blood was taken from the heart. The TNF-α in plasma was assayed by ELISA (Genzyme). The suppression of TNF-α production of the group administered with test compounds was calculated by the following formula. Inhibition (%) =[1-(test compound administered group)/(0.5% CMC-Na administered group)]× 100 [formula]

GM-CSF = assay: Inhibitory activity on GM-CSF production from LPS-stimulated human PBMC (immunoassay); format: cell-based; details: 24 h, read-out: GM-CSF IC50 (µM)
Protocol: as §1, §2, §3

IFNγ = assay: Inhibitory activity on IFNγ production in concanavalin A-stimulated spleen cells; format: cell-based, Balb/c mice; details: Balb/c mouse spleen cells, 5 µg/ml concanavalin A, 24 hours, EIA
Protocol: as §4, §5

[5] = Homo sapiens, PBMC, 24 h, human PBMC, LPS 10 µg/ml, incubation 24 hours, supernatant ELISA, read-out: TNF-α IC50
[6] = human PBMC, LPS 10 µg/ml, incubation 24 hours, supernatant ELISA, read-out: IL-6 IC50

`Cc1nnc2n1-c1ccccc1C(c1ccc(Cl)cc1)=NN2Cc1ccc[n+]([O-])c1` [Example 1, 3-[6-(4-Chlorophenyl)-1-methyl-4H-2,3,4,5,10b-pentaazabenz[e]azulen-4-ylmethyl]pyridine-1-oxide] was tested, and the inhibition in vivo at 10 mg/kg (IL-6 [1]) was 73%, the IC50 (TNF-α [2]; [5]) was 0.1 µM and the IC50 (TNF-α [2]; human PBMC, LPS 10 µg/ml, incubation 24 hours, supernatant ELISA, read-out: TNF-α IC50) was 0.13 µM.

In the case of `Cc1cc2c(s1)-n1c(C)nnc1N(Cc1ccc(-c3nnnn3C)cc1)N=C2c1ccccc1` [Example 16], the IC50 (IL-6 [3]; read-out: IL-6 IC50 (µM), human PBMC, LPS 10 µg/ml, incubation 24 hours, supernatant ELISA) is reported as 0.3 µM, the “Inhibtion (%) of plasma IL-6 production (10 mg/kg, p.o.)” value (IL-6 [1]) is reported as 84% and the IC50 (TNF-α [2]; Homo sapiens, PBMC, 24 h, read-out: TNF-α IC50 (µM), human PBMC, LPS 10 µg/ml, incubation 24 hours, supernatant ELISA) is reported as 0.06 µM.

In the case of `Cc1sc2c(c1C)C(c1ccc(Cl)cc1)=NN(Cc1ccc(C#N)cc1)c1nnc(C)n1-2` [Synthetic Example 115, 4-(4-Chlorophenyl)-6-(4-cyanobenzyl)-2,3,9-trimethyl-6H-5,6,7,8,9a-pentaazathieno[2,3-e]azulene], the inhibition in vivo at 10 mg/kg (IL-6 [1]) is reported as 75%.

`CCc1cc2c(s1)-n1c(C)nnc1N(Cc1ccncc1)N=C2c1ccc(Cl)cc1` [Synthetic Example 118, 4-(4-Chlorophenyl)-2-ethyl-9-methyl-6-(pyridin-4-ylmethyl)-6H-5,6,7,8,9a-pentaazathieno[2,3-e]azulene] gave an inhibition in vivo at 10 mg/kg (IL-6 [1]) of 75%.

`Cc1cc2c(s1)-n1c(C)nnc1N(Cc1ccncc1)N=C2c1ccccc1` [Synthetic Example 121, 2,9-Dimethyl-4-phenyl-6-(pyridin-4-ylmethyl)-6H-5,6,7,8,9a-pentaazathieno[2,3-e]azulene] gave an inhibition in vivo at 10 mg/kg (IL-6 [1]) of 91%.

Compound `Cc1cc2c(s1)-n1c(C)nnc1N(Cc1ccc(C#N)cc1)N=C2c1ccccc1` [Synthetic Example 122, 6-(4-Cyanobenzyl)-2,9-dimethyl-4-phenyl-6H-5,6,7,8,9a-pentaazathieno[2,3-e]azulene] has an inhibition in vivo at 10 mg/kg (IL-6 [1]) of 71%.

`Cc1sc2c(c1C)C(c1ccccc1)=NN(Cc1ccncc1)c1nnc(C)n1-2` [Synthetic Example 125, 2,3,9-Trimethyl-4-phenyl-6-(pyridin-4-ylmethyl)-6H-5,6,7,8,9a-pentaazathieno[2,3-e]azulene] showed an inhibition in vivo at 10 mg/kg (IL-6 [1]) of 84%.

In the case of `CCc1cc2c(s1)-n1c(C)nnc1N(Cc1ccncc1)N=C2c1ccccc1` [Synthetic Example 127, 2-Ethyl-9-methyl-4-phenyl-6-(pypidin-4-ylmethyl)-6H-5,6,7,8,9a-pentaazathieno[2,3-e]azulene], the “Inhibtion (%) of plasma IL-6 production (10 mg/kg, p.o.)” value (IL-6 [1]) is reported as 83%.

For `Cc1nnc2n1-c1ccccc1C(c1ccc(N)cc1)=NN2Cc1ccc(Cl)cc1` [Synthetic Example 191, 4-[4-(4-Chlorobenzyl)-1-methyl-4H-2,3,4,5,10b-pentaazabenz[e]azulen-6-yl]phenylamine hydrochloride], the IC50 (IL-6 [3]; [6]) was 0.001 µM, the inhibition in vivo at 10 mg/kg (IL-6 [1]) was 62% and the IC50 (TNF-α [2]; [5]) was 0.001 µM.

For `Cc1nnc2n1-c1ccccc1C(c1ccc(N)cc1)=NN2Cc1ccc(C#N)cc1` [Synthetic Example 192, 4-[4-(4-Cyanobenzyl)-1-methyl-4H-2,3,4,5,10b-pentaazabenz[e]azulen-6-yl]phenylamine hydrochloride], the IC50 (IL-6 [3]; [6]) was 0.03 µM, the inhibition in vivo at 10 mg/kg (IL-6 [1]) was 67% and the IC50 (TNF-α [2]; [5]) was 0.02 µM.

Work on `Cc1nnc2n1-c1ccccc1C(c1ccc(N)cc1)=NN2Cc1ccc([N+](=O)[O-])cc1` [Synthetic Example 193, 4-[1-Methyl-4-(4-nitrobenzyl)-4H-2,3,4,5,10b-pentaazabenz[e]azulen-6-yl]phenylamine hydrochloride] yielded an IC50 (IL-6 [3]; [6]) of less than 0.001 µM, an inhibition in vivo at 10 mg/kg (IL-6 [1]) of 67% and an IC50 (TNF-α [2]; [5]) of 0.001 µM.

For `Cc1nnc2n1-c1ccccc1C(c1ccc(Cl)cc1)=NN2Cc1cccnc1` [compound 19], the “Suppression (%) of edema” value (Adjuvant arthritis (AIA)) was 72.7±3.3** %, the IC50 (IL-8) was 0.26 µM and the IC50 (IL-2) was 240 nM. The “Inhibition (%) of plasma TNF-α production (30 mg/kg, p.o.)” value (TNF-α [4]) was 51%, the IC50 (GM-CSF) was 0.05 µM and the IC50 (IFNγ) was 120 nM.
